Holding throughout (conditions): stereoisomer not certain
Data set [1] in a line: RP, Merck Supelco Ascentis Express C18, 100 × 2.1 mm, 2 µm, 40 °C, 0.2 mL/min, estimated dead time 1.1 min; A: water + 0.1% formic acid, pH 3; B: acetonitrile + 0.1% formic acid, pH 3; gradient (min/%B) 0/5 2/5 17/99.9 20/99.9.
Test in data set [2]: as above
The source holds these as a separate data set.

Data set [3] in a line: RP, Merck Supelco Ascentis Express C18, 100 × 2.1 mm, 2 µm, 40 °C, 0.4 mL/min, estimated dead time 0.55 min; A: water + 0.1% formic acid, pH 3; B: acetonitrile + 0.1% formic acid, pH 3; gradient (min/%B) 0/5 2/5 17/99.9 20/99.9.
Test in data set [4]: as above
This is another data set of the same source.

A short description of data set [5]: RP, Merck Supelco Ascentis Express C18, 100 × 2.1 mm, 2 µm, 39 °C, 0.3 mL/min, estimated dead time 0.73 min; A: water + 0.1% formic acid, pH 3; B: acetonitrile + 0.1% formic acid, pH 3; gradient (min/%B) 0/5 2/5 17/99.9 20/99.9.
Data set [6] in a line: RP, Merck Supelco Ascentis Express C18, 100 × 2.1 mm, 2 µm, 40 °C, 0.25 mL/min, estimated dead time 0.88 min; A: water + 0.1% formic acid, pH 3; B: acetonitrile + 0.1% formic acid, pH 3; gradient (min/%B) 0/5 2/5 17/99.9 20/99.9.
Data set [7] is described as follows: RP, Merck Supelco Ascentis Express C18, 100 × 2.1 mm, 2 µm, 40 °C, 0.35 mL/min, estimated dead time 0.63 min; A: water + 0.1% formic acid, pH 3; B: acetonitrile + 0.1% formic acid, pH 3; gradient (min/%B) 0/5 2/5 17/99.9 20/99.9.

Structures can show the parent of a compound that is named as a salt.

Take `CC(=O)NC(CC(C)C)C(=O)O` (stereo unspecified) [N-ACETYLLEUCINE]: the LC retention time in data set [1] was 5.89 min; in data set [2], 5.9 min; in data set [3] it was 4.39 min; in data set [4], 4.36 min; in data set [5] it was 4.93 min; in data set [6], 5.35 min. Also, the LC retention time in data set [7] was 4.63 min.

`CC(=O)NC(Cc1ccccc1)C(=O)O` (stereo unspecified) [N-ACETYLPHENYLALANINE]: the LC retention time in data set [1] was 6.32 min; in data set [2] it was 6.31 min; in data set [3], 4.82 min; in data set [4] it was 4.78 min; in data set [5], 5.37 min; in data set [6], 5.77 min. Further, the LC retention time in data set [7] is 5.04 min.

Regarding `CC(=O)N1CCCC1C(=O)O` (stereo unspecified) [N-ACETYLPROLINE], the LC retention time was 2.76 min in data set [1]; 2.77 min in data set [2]; 1.46 min in data set [3]; 1.39 min in data set [4]; 1.89 min in data set [5]; 2.22 min in data set [6]. For the same compound, the LC retention time in data set [7] was 1.58 min.

For the compound `CC(=O)NCCc1c[nH]c2ccc(O)cc12` [N-ACETYLSEROTONIN], the LC retention time in data set [1] is 4.96 min; in data set [2], 4.97 min; in data set [3], 3.52 min; in data set [4] it was 3.5 min; in data set [5] it was 4.07 min; in data set [6], 4.45 min. In addition, the LC retention time in data set [7] was 3.77 min.

Take `CC(=O)NC(Cc1c[nH]c2ccccc12)C(=O)O` (stereo unspecified) [N-ACETYLTRYPTOPHAN]: the LC retention time in data set [1] is 6.55 min; in data set [2] it was 6.55 min; in data set [3] it was 5.1 min; in data set [4], 5.08 min; in data set [5] it was 5.64 min; in data set [6] it was 6.02 min. The LC retention time in data set [7] was 5.32 min.

`CSCC[C@H](NC=O)C(=O)O` [N-FORMYL-L-METHIONINE]: the LC retention time in data set [1] is 3.77 min; in data set [2], 3.77 min; in data set [3], 1.91 min; in data set [4], 1.87 min; in data set [5], 2.52 min; in data set [6] it was 3.02 min. For the same compound, the LC retention time in data set [7] was 2.16 min.

`CCCCC(N)C(=O)O` (stereo unspecified) [NORLEUCINE]: the LC retention time in data set [1] was 1.62 min; in data set [2], 1.63 min; in data set [3] it was 0.8 min; in data set [4], 0.79 min; in data set [5], 1.05 min; in data set [6], 1.3 min. Moreover, the LC retention time in data set [7] is 0.91 min.

For the compound `CCCCCCCCC=CCCCCCCCC(=O)OCC(O)CO` (stereo unspecified) [OLEOYL-GLYCEROL], the LC retention time in data set [1] is 17.3 min; in data set [2], 17.3 min; in data set [3], 15.1 min; in data set [4], 15.1 min; in data set [5] it was 15.9 min; in data set [6] it was 16.5 min. Also, the LC retention time in data set [7] was 15.5 min.

Regarding `O=C(O)CCCCCCCCCCCO` [OMEGA-HYDROXYDODECANOATE], the LC retention time in data set [1] is 9.68 min; in data set [2], 9.68 min; in data set [3], 8.17 min; in data set [4], 8.13 min; in data set [5] it was 8.71 min; in data set [6] it was 9.11 min. The LC retention time in data set [7] was 8.4 min.

With `O=C(O)Cc1ccc(O)cc1` [P-HYDROXYPHENYLACETATE], the LC retention time in data set [1] is 5 min; in data set [2], 4.99 min; in data set [3], 3.36 min; in data set [4], 3.34 min; in data set [5], 4.02 min; in data set [6], 4.43 min. Also, the LC retention time in data set [7] is 3.64 min.

On to `CCCCCCCCCCCCCCCC(=O)O` [PALMITATE], for which the LC retention time is 17.9 min in data set [1]; 17.9 min in data set [2]; 15.7 min in data set [3]; 15.7 min in data set [4]; 16.5 min in data set [5]; 17.1 min in data set [6]. Also, in data set [7], the LC retention time is 16.1 min.

For the compound `CC(C)(CO)C(O)C(=O)NCCC(=O)O` (stereo unspecified) [PANTOTHENATE], the LC retention time is 2.7 min in data set [1]; 2.71 min in data set [2]; 1.38 min in data set [3]; 1.36 min in data set [4]; 1.79 min in data set [5]; 2.15 min in data set [6]. Moreover, in data set [7], the LC retention time is 1.56 min.

With `Cn1c(=O)[nH]c2ncn(C)c2c1=O` [PARAXANTHINE], the LC retention time in data set [1] was 3.98 min; in data set [2], 3.96 min; in data set [3], 2.16 min; in data set [4] it was 2.15 min; in data set [5], 2.81 min; in data set [6] it was 3.33 min. Moreover, in data set [7], the LC retention time is 2.47 min.

Turning to `CCCCCCCCCCCC=CCCCCC(=O)[O-]` [PETROSELINATE], the LC retention time in data set [1] is 18.2 min; in data set [2] it was 18.1 min; in data set [3], 16.1 min; in data set [4], 16 min; in data set [5], 16.8 min; in data set [6] it was 17.4 min. In addition, the LC retention time in data set [7] is 16.4 min.

Turning to `CC(=O)Oc1ccccc1` [PHENYL ACETATE], the LC retention time was 5.43 min in data set [1]; 5.44 min in data set [2]; 3.95 min in data set [3]; 3.93 min in data set [4]; 4.5 min in data set [5]; 4.9 min in data set [6]. Moreover, the LC retention time in data set [7] is 4.18 min.

`NC(Cc1ccccc1)C(=O)O` (stereo unspecified) [PHENYLALANINE]: the LC retention time in data set [1] is 2.23 min; in data set [2] it was 2.26 min; in data set [3], 1.11 min; in data set [4] it was 1.1 min; in data set [5] it was 1.46 min; in data set [6], 1.77 min. Besides, the LC retention time in data set [7] was 1.26 min.

Turning to `CC(=O)C1CCC2C3CC=C4CC(OS(=O)(=O)O)CCC4(C)C3CCC12C` (stereo unspecified) [PREGNENOLONE SULFATE], the LC retention time in data set [1] was 10.1 min; in data set [2], 9.94 min; in data set [3] it was 8.55 min; in data set [4] it was 8.55 min; in data set [5], 9.19 min; in data set [6], 9.46 min. In addition, in data set [7], the LC retention time is 8.79 min.

`CC(=O)Oc1cccc(O)c1` [RESORCINOL MONOACETATE]: the LC retention time in data set [1] was 7.01 min; in data set [2], 7 min; in data set [3], 5.17 min; in data set [4] it was 5.14 min; in data set [5], 5.94 min; in data set [6], 6.34 min. Moreover, the LC retention time in data set [7] was 5.5 min.

Regarding `Cc1cc2nc3c(=O)[nH]c(=O)nc-3n(CC(O)C(O)C(O)CO)c2cc1C` (stereo unspecified) [RIBOFLAVIN], the LC retention time is 5.39 min in data set [1]; 5.38 min in data set [2]; 4.24 min in data set [3]; 4.23 min in data set [4]; 4.65 min in data set [5]; 4.94 min in data set [6]. Moreover, the LC retention time in data set [7] is 4.41 min.

As to `O=C(C=Cc1ccc(O)c(O)c1)OC(Cc1ccc(O)c(O)c1)C(=O)O` (stereo unspecified) [ROSMARINATE], the LC retention time in data set [1] was 6.9 min; in data set [2] it was 6.88 min; in data set [3] it was 5.62 min; in data set [4], 5.6 min; in data set [5], 6.1 min; in data set [6] it was 6.41 min. The LC retention time in data set [7] is 5.82 min.

Consider `CCCCCCSCC(NC(=O)CCC(N)C(=O)O)C(=O)NCC(=O)O` (stereo unspecified) [S-HEXYL-GLUTATHIONE], for which the LC retention time in data set [1] is 7.13 min; in data set [2] it was 7.14 min; in data set [3], 5.87 min; in data set [4], 5.85 min; in data set [5], 6.32 min; in data set [6] it was 6.66 min. Moreover, in data set [7], the LC retention time was 6.06 min.

For the compound `NC(=O)c1ccccc1O` [SALICYLAMIDE], the LC retention time is 5.82 min in data set [1]; 5.82 min in data set [2]; 4.05 min in data set [3]; 4.02 min in data set [4]; 4.72 min in data set [5]; 5.19 min in data set [6]. Besides, the LC retention time in data set [7] was 4.34 min.

For the compound `O=C(O)c1ccccc1[O-]` [SALICYLATE], the LC retention time in data set [1] is 5.3 min; in data set [2] it was 5.31 min; in data set [3], 3.62 min; in data set [4], 3.59 min; in data set [5], 4.28 min; in data set [6], 4.72 min. Moreover, the LC retention time in data set [7] was 3.9 min.

(Values after the RepoRT retention time repository (doi:10.1007/s00216-021-03828-0).)
